Measurements: patent publication USRE39530E1, “3-amino-3-arylpropan-1-ol-compounds, their preparation and use” (Gruenenthal GmbH, priority 1999, dated 2007)

Experiments:
[1] = system: bonding site 2 of the sodium channel (BTX bonding site); experiment: Bonding investigations on the sodium channel, bonding site 2 (BTX bonding); assay type: binding; settings: rat cerebrocortex synaptosomes; for BTX bonding at 10 μM: percentage inhibition at 10 μM test substance, [3H]-batrachotoxin A20 α-benzoate 10 nM
Description: Bonding Site 2 (BTX bonding)
Bonding site 2 of the sodium channel is the so-called batrachotoxin (BTX) bonding site. [^3H]-Batrachotoxin A20 α-benzoate (10 nM in the batch) was employed as the ligand. These ion channel particles (synaptosomes) were concentrated out of the rat cerebrocortex by the method of Gray and Whittaker (E. G. Gray and V. P. Whittaker (1962) J. Anat. 76, 79-88). The radioactivity measured in the presence of veratridin (0.3 mM in the batch) is defined as non-specific bonding. Incubation at 37° C. for 120 min. The assay conditions were implemented in accordance with the publication of Pauwels, Leysen and Laduron (P. J. Pauwels, J. E. Leysen and P. M. Laduron (1986) Eur. J. Pharmacol. 124, 291-298).
(§1) In addition to the percentage inhibition of the test systems at fixed test substance concentrations (10 μM in the batch), dose-dependencies were investigated. In this investigation, IC50 values are obtained, and these can be converted by the “Cheng-Prusoff equation” (Y. C. Cheng and W. H. Prusoff (1973) Biochem. Pharmacol. 22, 3099-3108) into inhibitor constants (Ki). The IC50 values were obtained with the aid of the “Figure P” computer program (version 6.0, Biosoft, Cambridge, England). Km values were calculated by the method of Lineweaver and Burk (H. Lineweaver and D. Burk (1934) J. Am. Chem. Soc. 56, 658-666). The “Ligand” computer program (version 4, Biosoft, England) is used to obtain KD values.

[2] = system: phenylquinone-induced writhing; experiment: Phenylquinone-induced writhing test on mice; assay type: in vivo; settings: male NMRI mice, 10 min before phenylquinone i.p., writhing counted 5 to 20 min after phenylquinone
Description: The analgesic activity was investigated on phenylquinone-induced writhing in mice (modified by I. C. Hendershot and J. Forsaith (1959) J. Pharmacol. Exp. Ther. 125, 237-240). Male NMRI mice weighing 25 to 30 g were used for this. Groups of 10 animals per dose of substance received 0.3 ml/mouse of a 0.02% aqueous solution of phenylquinone (phenylbenzoquinone), Sigma, Deisenhofen; preparation of the solution with addition of 5% ethanol and storage in a water bath at 45° C.) as an intraperitoneal administration 10 minutes after intravenous administration of the test substances. The animals were placed individually in observation cages. The number of pain-induced extension movements (so-called writhing reactions=straightening of the body with stretching out of the hind extremities) 5 to 20 minutes after the administration of phenylquinone was counted by means of a push-button counter. Animals which receive only physiological saline solution were also run as a control. All the substances were tested in the standard dosage of 10 mg/kg. The percentage inhibition (% inhibition) of the writhing reaction by a substance was calculated in accordance with the following equation: [formula] For some substances, the ED50 values with 95% confidence limits of the writhing reaction were calculated from the dose-dependent decrease in the writhing reactions compared with phenylquinone control groups investigated in parallel by means of regression analysis (evaluation program of Martens EDV Service, Eckental).

[3] = system: benzothiazepine bonding site of the L-type calcium channel; experiment: Bonding investigations on the L calcium channel, benzothiazepine bonding site (diltiazem bonding); assay type: binding; settings: rat cerebrocortex membranes; for Diltiazem bonding at 10 μM: percentage inhibition at 10 μM test substance, [3H]-cis-(+)-diltiazem 5 nM
Description: Benzothiazepine Bonding Site (diltiazem bonding)
The biological membrane material was isolated from the cerebrocortex of the rat. [^3H]-cis-(+)-Diltiazem (5 nM in the batch) was used as the ligand. Incubation for 20 minutes at 25° C. The radioactivity measured in the presence of (+)-diltiazem (10^−6 M in the batch) is defined as non-specific bonding. At the end of the incubation, the non-bonded content of radioactive ligand is removed with the aid of a filtration process over Whatman glass fiber GF/B membranes. After a washing process, the membranes are then measured on a β-counter. The method has been established in accordance with the publication of Schoemaker and Langer (H. Schoemaker and S. Z. Langer (1985) Eur. J. Pharmacol. 111, 273-277).
as §1

Molecule | BTX bonding at 10 μM [1] [%] | % Inhibition of the writhing reaction at 10 mg/kg intravenously [2] [%] | Diltiazem bonding at 10 μM [3] [%] | Kd ([1]; radioligand, means±SEM, N=3, read-out: KD value for this bonding site) [nM] | Kd ([3]; radioligand, means±SEM, N=3, read-out: KD value for this high-affinity bonding site) [nM]
Cc1ccccc1COC1CCCCC1C(c1ccccc1)N(C)C.Cl (stereo not shown) [Example 1, Dimethyl-{[2-(2-methyl-benzyloxy)cyclohexyl]phenylmethyl}-amine hydrochloride] | 99 | 85 | 82 | – | –
CN(C)C(c1ccccc1)C1CCCCC1OC(=O)c1ccc(C(F)(F)F)cc1.Cl (stereo not shown) [Example 2, [2-(Dimethylaminophenylmethyl)cyclohexyl]-4-trifluoromethylbenzoate hydrochloride] | 98 | 48 | – | – | –
COc1ccc(C(=O)OC2CCCCC2C(c2ccccc2)N(C)C)cc1.Cl (stereo not shown) [Example 3, [2-(Dimethylaminophenylmethyl)cyclohexyl]4-methoxybenzoate hydrochloride] | 89 | 43 | 65 | – | –
CN(C)C(c1ccccc1Cl)C1CCCCC1OCc1ccccc1Cl.Cl (stereo not shown) [Example 4, {[2-(2-Chlorobenzyloxy)cyclohexyl]-(2-chlorophenyl)methyl}-dimethylamine hydrochloride] | 92 | 32 | 73 | – | –
CN(C)C(c1ccccc1)C1CCCCC1OCc1cccc(F)c1.Cl (stereo not shown) [Example 5, {[2-(3-Fluorobenzyloxy)cyclohexyl]-phenylmethyl}dimethylamine hydrochloride] | 98 | 74 | 89 | – | –
CN(C)C(c1ccccc1)C1CCCCC1OCc1ccc(F)cc1.Cl (stereo not shown) [Example 6, {[2-(4-Fluorobenzyloxy)cyclohexyl]-phenylmethyl}dimethylamine hydrochloride] | 97 | 68 | 86 | – | –
[^3H]-Batrachotoxin A20 α-benzoate [reference compound] | – | – | – | 24.6 ± 1.56 | –
[^3H]-cis-(+)-Diltiazem [reference compound] | – | – | – | – | 4.1 ± 0.75
